US20180369264A1, “COMBINATION OF A CARDIAC STEROID AND AN AKT INHIBITOR FOR THE TREATMENT OF CARDIOVASCULAR DISEASES AND DISORDERS” (YISSUM RESEARCH DEVELOPMENT COMPANY OF THE HEBREW …, priority 2015, published 2018)
Like-named read-outs stand apart in the source and are kept apart here.

Experiments:
[1] = test system: wild-type zebrafish larvae heart; assay type: in vivo, zebrafish (Danio rerio)
Description: Experiments were performed on wild-type (WT, AB strain) zebrafish (Danio rerio). The fish were maintained in accordance with the principles established by the NIH. […] The fish were kept in swimming medium (E3 medium) in small aquaria at 28° C. and maintained under a 14h: 10h light:dark cycle. The zebrafish larvae were maintained in the presence of 0.1% methylene blue (M9140, Sigma-Aldrich Inc, Israel) at 28° C. All measurements were taken in embryos at 72 hours post fertilization (hpf).
Ouabain, bufalin, digoxin, acetylcholine, carbachol, […] (pp2) and U0126 (1,4-diamino-2,3-dicyano-1,4-bis(2-aminophenylthio)butadiene) were purchased from Sigma-Aldrich Inc., Israel. The compounds were dissolved in egg water (0.3 g Instant Ocean Salt in distilled water) to a final selected concentration, as specified in the following examples. […]
Filming process Zebrafish larvae heart imaging was performed using an Olympus CKX41 (Japan) […] microscope with ×10 or ×20 magnification, and integrated incandescent illumination. A FastCam imi-tech (Korea) high speed digital camera with 640×480 pixel gray scale image sensor was mounted on the microscope, using ImCam software (IMI Technology, Co. Ltd) for high speed video recording. The larvae were anesthetized by placing them in filming/anesthetizing medium. Each larva in 0.5 ml filming/anesthetizing medium was transferred to a 96-well tissue culture plate at room temperature and sequential images of the heart were obtained, with the larvae positioned on their side, at 80 fps during 10 seconds with a shutter speed of 0.016 seconds.
Physiological parameters of cardiovascular performance, as indicated hereinbelow, were evaluated in the zebrafish larvae. Image analysis applications ImageJ (NIH, USA) were used, allowing the delineation of the endomyocardial border at the end of systole or end of diastole to define the ventricular area. Sequential still frames were analyzed to capture ventricular end-systole and end-diastole images. End Systolic Area (ESA, FIG. 1B) and End Diastolic Area (EDA, FIG. 1C) were used to calculate Fractional Area Change (FAC), according to the equation: FAC=(EDA-ESA)/EDA*100. The Ejection Fraction (EF) was determined by an independent estimate of ventricular volume. This was achieved by placing scan lines across the midventricular short axis (SA) and long axis (LA) at the end of systole (FIG. 1D) and diastole (FIG. 1E). […] EF was then calculated according to the equation: EF=(EDV-ESV)/EDV*100. Heart rate (HR) was measured in beats per minute. Cardiac output (CO) was calculated according to the equation: CO=(EDV-ESV)*HR. A minimum of five sequential pairs of systolic and diastolic cycles were measured and analyzed in 9-12 larvae for each treatment.

[2] = test system: adult acc mutant primary cardiomyocytes; assay: acc mutant primary cardiomyocyte contractility; assay type: cell-based, zebrafish; conditions: for amplitude of contractility: 0.1 nM ouabain or 1 nM MK-2206 alone; for Amplitude / Contraction Rate (−dv/dt) / Relaxation Rate (+dv/dt): Acc mutant, 0.1 nM Oua, 1 nM MK, 20 minutes, 0.5 Hz
Description: Adult (4 to 12-month-old) ventricular myocytes were obtained by enzymatic dissociation (with collagenase II and IV, at 5 mg/ml, each). The zebrafish were stunned by a blow to the head and the brain was pithed. The heart was quickly removed and placed in a small Petri dish containing 10 ml isolation solution: 100 mM NaCl, 10 mM KCl, 1.2 mM KH2PO4, 4 mM MgSO4, 50 mM taurine, 20 mM glucose, and 10 mM Hepes, pH 6.9. The ventricle was cut free from the bulbus and atrium under a binocular. Ventricles from 3 fish were incubated for 45 minutes at 32° C. in a solution containing perfusion buffer (150 mM NaCl, 5.4 mM KCl, 1.5 mM MgSO4, 0.4 mM NaH2PO4, 2 mM CaCl2, 10 mM glucose, and 10 mM Hepes, pH 7.7). Collagenases II and IV (Gibco, NY, USA, 5 mg/ml each) and additional CaCl2 (2.012 mM final concentration) were added. Following Eppendorf centrifugation (1 minute, 250×g at room temperature) the precipitated cells were suspended in 1 ml perfusion buffer for 30 minutes at room temperature before use.
Cells were transferred to a chamber with a quartz base and examined using an inverted epifluorescence microscope (Nikon Diaphot 200, Japan). The myocytes were field-stimulated (0.5 Hz, 70 V, square waves) and contractions were measured using a video motion edge detector (Crescent Electronics, Sandy, Utah, USA) at the rate of 5 Hz. Cardiomyocyte performance was calculated as the percentage of resting cell length. The slopes of contraction and relaxation (+dL/dt and −dL/dt) were calculated from the linear portions of the changes in contractility. 9 cells per each group were measured. Each of the experiments was repeated at least 3 times with identical results.

[3] = test system: Ca^2+ transients in wt zebrafish isolated adult heart; assay: Ca^2+ transients in wt zebrafish isolated adult heart; conditions: for Amplitude (Maximal deflection from baseline) / Area (Area under the transient relative to baseline) / Decay slope (−Δ Fluorescence in the linear phase/sec) / Rate / Rise slope (+Δ Fluorescence in the linear phase/sec): Ouabain 200 μM, MK-2206 1 nM
Description: Spontaneous Ca^2+ transients were measured in isolated hearts from adult zebrafish. The zebrafish were stunned by a blow to the head and the hearts were removed quickly and placed in Dulbecco's Modified Eagle's Medium (DMEM) containing 10% Fetal Bovine Serum (FBS) at room temperature. A total 3-5 hearts were placed in a small Petri dish containing 100 μl Krebs-Ringer's solution (119 mM NaCl, 2.5 mM KCl, 1 mM NaH2PO4, 2.5 mM CaCl2, 1.3 mM MgCl2, 20 mM HEPES and 11 mM D-glucose) with 0.01 mM Fura-2 AM (Biotium, Inc., CA, USA) in DMEM-FBS. Following incubation for 10 min (37° C., 5% CO2), 150 μl of Krebs-Ringer's solution were added to the Petri dish which was incubated for an additional 30 minutes. The dye was removed from the solution by two incubations (10 minutes each, room temperature) in DMEM-FBS solution. Intracellular Ca^2+ transients were measured in stabilizing medium containing 1% low-melt agarose in Krebs-Ringer's solution. The hearts were kept for 30 minutes in the presence of MK-2206 (or saline) and then underwent excitation/emission cycles for 2 minutes at 340 and 380 nm with 510 nm emission using a PTI fluorimetric system (Photon Technology International, Madison, USA). Ouabain was then added and the excitation/emission cycles were monitored for 8 minutes. The Ca^2+ levels are presented as the ratio of 340/380 nm fluorescence emission.

[4] = wt larvae, 10 nM MK-2206, 1 nM CS

SMILES | amplitude of contractility [2] | Amplitude [2] | Contraction Rate (−dv/dt) [2] | Relaxation Rate (+dv/dt) [2] | Amplitude (Maximal deflection from baseline) [3] | Area (Area under the transient relative to baseline) [3] | Decay slope (−Δ Fluorescence in the linear phase/sec) [3] | Rate [3] [wave/min] | Rise slope (+Δ Fluorescence in the linear phase/sec) [3] | further results
NC1(c2ccc(-c3nc4ccn5c(=O)[nH]nc5c4cc3-c3ccccc3)cc2)CCC1 [MK-2206] | did not affect the amplitude | 0.15 ± 0.02 | 2.61 ± 0.74 | 0.98 ± 0.34 | 4.8 ± 0.13 | 2.81 ± 0.19 | 4.65 ± 0.54 | 48 ± 4.8 | 1.65 ± 0.28 | effect of inhibitor alone on heart function / basal contractility ([1]; PP2 50 nM, U0126 1 μM, MK-2206 10 nM for 2 hours): did not affect heart contractility parameters; effect on CS-induced increase in heart contractility (FAC and EF) compared with CS in the absence of the inhibitor [1, 4]: doubling of the CS-induced increase in heart contractility; effect on heart rate of MK-2206 with CS [1, 4]: not accompanied by any effect on heart rate
C[C@@H]1O[C@@H](O[C@H]2C[C@@H](O)[C@]3(CO)[C@H]4[C@H](O)C[C@]5(C)[C@@H](C6=CC(=O)OC6)CC[C@]5(O)[C@@H]4CC[C@]3(O)C2)[C@H](O)[C@H](O)[C@H]1O [ouabain, 3-(alpha-L-Rhamnopyranosyloxy)-1beta,5beta,11alpha,14,19-pentahydroxy-5beta-card-20(22)-enolide] | did not affect the amplitude | 0.14 ± 0.03 | 2.43 ± 0.84 | 0.07 ± 0.05 | 6.59 ± 0.71 | 2.94 ± 0.44 | 20 ± 3.51 | 52 ± 6.8 | 7.84 ± 2.02 | maximal increase in CO ([1]; 0.2 nM, 90 minutes): 38±3.68%; effect on force of contraction ([1]; 1 nM): increased significantly the force of contraction; effect on heart rate ([1]; 1 nM): without affecting heart rate; effect on heart rate ([1]; 0.05-0.4 nM, 90 minutes): no change in heart rate; concentration producing a significant increase in heart contractility ([1]; added to larvae swimming medium): 0.1 nM; effect on heart force of contraction (FAC, EF, CO) ([1]; low concentrations (ouabain 0.05-0.4 nM), 90 minutes): significant increase in the heart force of contraction in a dose-dependent manner; increase in the contraction amplitude ([2]; ouabain in the presence of Akt inhibitor): 67%; increase in amplitude of the Ca^2+ transients ([3]; 200 μM ouabain): 27%; increase in decay slope of the Ca^2+ transients ([3]; 200 μM ouabain): 86%; increase in rise slope of the Ca^2+ transients ([3]; 200 μM ouabain): 61%
